Results as given in PubChem BioAssay AID192 (DTP/NCI, 2004).
Several values for one entry are separate records, joined by “and”; a condition that tells them apart may be missing. Identical values can stand only once. Toxic doses and inconclusive results are not listed. How the source made its calls: active means survival T/C of 150% or more; inactive means T/C below 125% in these data.

Test system: BDF1 mice, B16 melanoma ip, median survival T/C
Assay: NCI In Vivo Anticancer Drug Screen. Data for tumor model B16 Melanoma (intraperitoneal) in B6D2F1 (BDF1) mice
Conditions: endpoint: median survival time, higher = longer survival
Summary of the method: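 Read-out: survival or tumor size, given as treated/control ratio. Controls received vehicle only; animals bore transplantable tumors.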

[1] = dose: 50.0 mg/kg/injection, schedule: Q01DX009 (ip), vehicle: saline
[2] = dose: 100.0 mg/kg/injection, schedule: Q01DX009 (ip), vehicle: saline
[3] = dose: 200.0 mg/kg/injection, schedule: Q01DX009 (ip), vehicle: saline
[4] = dose: 5.0 mg/kg/injection, schedule: Q01DX009 (ip), vehicle: saline
[5] = dose: 10.0 mg/kg/injection, schedule: Q01DX009 (ip), vehicle: saline
[6] = dose: 20.0 mg/kg/injection, schedule: Q01DX009 (ip), vehicle: saline
[7] = dose: 12.5 mg/kg/injection, schedule: Q01DX009 (ip), vehicle: saline with Tween-80

Measured: T/C

O=C(O)C1C2CC(O)C(C2)C1C(=O)O (stereo not given)
inactive: dose: 100.0 mg/kg/injection, schedule: Q04DX003 (ip), vehicle: saline 100 % of control and 94 % of control | dose: 200.0 mg/kg/injection, schedule: Q04DX003 (ip), vehicle: saline 100 % of control and 91 % of control | dose: 400.0 mg/kg/injection, schedule: Q04DX003 (ip), vehicle: saline 94 % of control

CC(NC(=O)C(N)CCC(=O)O)C(=O)O (stereo not given)
inactive: [1] 97 % of control | [2] 90 % of control | [3] 90 % of control | dose: 400.0 mg/kg/injection, schedule: Q01DX009 (ip), vehicle: saline 94 % of control

Nc1cc(Cl)cc(Cl)c1C(=O)O
inactive: dose: 50.0 mg/kg/injection, schedule: Q04DX003 (ip), vehicle: other 102 % of control | dose: 100.0 mg/kg/injection, schedule: Q04DX003 (ip), vehicle: other 100 % of control | dose: 200.0 mg/kg/injection, schedule: Q04DX003 (ip), vehicle: other 102 % of control

CC1(C)N=C(N)N=C(N)N1c1cccc(Cl)c1
inactive: [4] 115 % of control | [5] 115 % of control | dose: 10.0 mg/kg/injection, schedule: Q04DX003 (ip), vehicle: saline 118 % of control | [6] 120 % of control | dose: 20.0 mg/kg/injection, schedule: Q04DX003 (ip), vehicle: saline 117 % of control | dose: 40.0 mg/kg/injection, schedule: Q01DX009 (ip), vehicle: saline 120 % of control

Cc1cc(-c2ccc(N=Nc3ccc4c(S(=O)(=O)O)cc(S(=O)(=O)O)c(N)c4c3O)c(C)c2)ccc1N=Nc1ccc2c(S(=O)(=O)O)cc(S(=O)(=O)O)c(N)c2c1O
inactive: dose: 12.5 mg/kg/injection, schedule: Q01DX009 (ip), vehicle: saline 121 % of control

C[C@@]12C(=O)OC(=O)[C@]1(C)[C@H]1CC[C@@H]2O1
inactive: dose: 0.06 mg/kg/injection, schedule: Q01DX009 (ip), vehicle: Klucel (hydroxypropylcellulose) (HPC) 89 % of control | dose: 0.12 mg/kg/injection, schedule: Q01DX009 (ip), vehicle: Klucel (hydroxypropylcellulose) (HPC) 93 % of control | dose: 0.13 mg/kg/injection, schedule: Q01DX009 (ip), vehicle: acetone 103 % of control | dose: 0.25 mg/kg/injection, schedule: Q01DX009 (ip), vehicle: Klucel (hydroxypropylcellulose) (HPC) 90 % of control | dose: 0.25 mg/kg/injection, schedule: Q01DX009 (ip), vehicle: acetone 101 % of control | dose: 0.5 mg/kg/injection, schedule: Q01DX009 (ip), vehicle: Klucel (hydroxypropylcellulose) (HPC) 102 % of control | dose: 0.5 mg/kg/injection, schedule: Q01DX009 (ip), vehicle: acetone 110 % of control | dose: 1.0 mg/kg/injection, schedule: Q01DX009 (ip), vehicle: Klucel (hydroxypropylcellulose) (HPC) 96 % of control

Clc1cc(Cl)c(C[N+]23CN4CN(CN(C4)C2)C3)cc1Cl
inactive: dose: 25.0 mg/kg/injection, schedule: Q01DX009 (ip), vehicle: saline 117 % of control | [1] 108 % of control | [2] 111 % of control | [3] 122 % of control

O=C(Nc1ccc(C(=O)Nc2cc(S(=O)(=O)O)cc3cc(S(=O)(=O)O)cc(O)c23)cc1)c1ccccc1
inactive: dose: 100.0 mg/kg/injection, schedule: Q01DX009 (ip), vehicle: saline with Tween-80 94 % of control | dose: 200.0 mg/kg/injection, schedule: Q01DX009 (ip), vehicle: saline with Tween-80 89 % of control | dose: 400.0 mg/kg/injection, schedule: Q01DX009 (ip), vehicle: saline with Tween-80 89 % of control

COc1cccc(CN2CCCNCC2)c1
inactive: dose: 6.25 mg/kg/injection, schedule: Q01DX009 (ip), vehicle: water 102 % of control | dose: 12.5 mg/kg/injection, schedule: Q01DX009 (ip), vehicle: water 115 % of control | dose: 25.0 mg/kg/injection, schedule: Q01DX009 (ip), vehicle: water 114 % of control | dose: 50.0 mg/kg/injection, schedule: Q01DX009 (ip), vehicle: water 100 % of control

COC(=O)CC(=O)CBr
inactive: [4] 100 % of control | [5] 93 % of control | [6] 94 % of control

O=C(N=C1C=CC(=NC(=O)OCc2ccccc2)C=C1)OCc1ccccc1
inactive: dose: 75.0 mg/kg/injection, schedule: Q01DX009 (ip), vehicle: Klucel (hydroxypropylcellulose) (HPC) 98 % of control | dose: 150.0 mg/kg/injection, schedule: Q01DX009 (ip), vehicle: Klucel (hydroxypropylcellulose) (HPC) 92 % of control | dose: 300.0 mg/kg/injection, schedule: Q01DX009 (ip), vehicle: Klucel (hydroxypropylcellulose) (HPC) 91 % of control

C=C1C(=O)O[C@@H]2C[C@@H](C)[C@@H]3[C@@H](OC4OC(COC(C)=O)C(O)C(O)C4O)CC(=O)[C@@]3(C)C[C@H]12 (stereo not given in full)
inactive: dose: 6.4 mg/kg/injection, schedule: Q01DX009 (ip), vehicle: saline 95 % of control | dose: 9.6 mg/kg/injection, schedule: Q01DX009 (ip), vehicle: saline 100 % of control | dose: 14.0 mg/kg/injection, schedule: Q01DX009 (ip), vehicle: saline 100 % of control | dose: 22.0 mg/kg/injection, schedule: Q01DX009 (ip), vehicle: saline 100 % of control

COC1=C(OC)C(=O)C(C/C=C(\C)CC/C=C(\C)CC/C=C(\C)CC/C=C(\C)CC/C=C(\C)CC/C=C(\C)CC/C=C(\C)CC/C=C(\C)CCC=C(C)C)=C(C)C1=O
inactive: dose: 10.0 mg/kg/injection, schedule: Q01DX025 (ip), vehicle: saline with Tween-80 81 % of control | dose: 20.0 mg/kg/injection, schedule: Q01DX025 (ip), vehicle: saline with Tween-80 102 % of control | dose: 40.0 mg/kg/injection, schedule: Q01DX025 (ip), vehicle: saline with Tween-80 100 % of control

O=C1CC(NC(=O)OCc2ccccc2)C(=O)O1 (stereo not given)
inactive: dose: 100.0 mg/kg/injection, schedule: Q01DX009 (ip), vehicle: alcohol 111 % of control | dose: 200.0 mg/kg/injection, schedule: Q01DX009 (ip), vehicle: alcohol 94 % of control

CC1CCC2N(C1)CC1C(C(O)C(O)C3(O)C1CC14OC5(O)C(O)CCC1(C)C5CC(O)C34)C2(C)O (stereo not given)
inactive: dose: 16.25 mg/kg/injection, schedule: Q01DX009 (ip), vehicle: saline 100 % of control | dose: 37.5 mg/kg/injection, schedule: Q01DX009 (ip), vehicle: saline 102 % of control | dose: 65.0 mg/kg/injection, schedule: Q01DX009 (ip), vehicle: saline 100 % of control | dose: 130.0 mg/kg/injection, schedule: Q01DX009 (ip), vehicle: saline 104 % of control

Cc1cc(=O)[nH]c(N/N=C/c2cc(Cl)ccc2O)n1
inactive: [7] 93 % of control | dose: 25.0 mg/kg/injection, schedule: Q01DX009 (ip), vehicle: saline with Tween-80 90 % of control | dose: 50.0 mg/kg/injection, schedule: Q01DX009 (ip), vehicle: saline with Tween-80 86 % of control

O=C(Cl)C1CC2c3ccccc3C1([N+](=O)[O-])c1ccccc12 (stereo not given)
inactive: dose: 50.0 mg/kg/injection, schedule: Q04DX003 (ip), vehicle: Klucel (hydroxypropylcellulose) (HPC) 94 % of control | dose: 100.0 mg/kg/injection, schedule: Q04DX003 (ip), vehicle: Klucel (hydroxypropylcellulose) (HPC) 100 % of control | dose: 200.0 mg/kg/injection, schedule: Q04DX003 (ip), vehicle: Klucel (hydroxypropylcellulose) (HPC) 102 % of control

O=C1c2ccccc2C(=O)c2c(NCCN3CCCCC3)ccc(NCCN3CCCCC3)c21
inactive: dose: 16.0 mg/kg/injection, schedule: Q01DX009 (ip), vehicle: acid diluted with saline 107 % of control

CCOC(=O)c1ccc(NC(=O)Nc2nc(C)cs2)cc1
inactive: dose: 25.0 mg/kg/injection, schedule: Q01DX009 (ip), vehicle: distilled water + Tween-80 111 % of control | dose: 200.0 mg/kg/injection, schedule: Q01DX009 (ip), vehicle: distilled water + Tween-80 120 % of control

COc1ccc2c(Cc3ccccc3)cncc2c1O
inactive: dose: 6.25 mg/kg/injection, schedule: Q01DX009 (ip), vehicle: Klucel (hydroxypropylcellulose) (HPC) 97 % of control | dose: 12.5 mg/kg/injection, schedule: Q01DX009 (ip), vehicle: Klucel (hydroxypropylcellulose) (HPC) 99 % of control | dose: 25.0 mg/kg/injection, schedule: Q01DX009 (ip), vehicle: Klucel (hydroxypropylcellulose) (HPC) 102 % of control | dose: 50.0 mg/kg/injection, schedule: Q01DX009 (ip), vehicle: Klucel (hydroxypropylcellulose) (HPC) 104 % of control

CC1CC(C)(C)N=C(CCC2CCCC23OCCO3)O1 (stereo not given)
inactive: [1] 108 % of control | [2] 111 % of control

Cc1cc(NCCCCCCCNc2cc(C)nc3cc(N)ccc23)c2ccc(N)cc2n1
inactive: dose: 0.78 mg/kg/injection, schedule: Q01DX009 (ip), vehicle: saline with Tween-80 99 % of control | dose: 1.56 mg/kg/injection, schedule: Q01DX009 (ip), vehicle: saline with Tween-80 100 % of control | dose: 3.12 mg/kg/injection, schedule: Q01DX009 (ip), vehicle: saline with Tween-80 113 % of control | dose: 6.25 mg/kg/injection, schedule: Q01DX009 (ip), vehicle: saline with Tween-80 103 % of control | [7] 100 % of control
